Tests used:
[1] = biological target: RNA-directed RNA polymerase (Hepacivirus hominis, UniProt O39930); assay: Inhibitory concentration against RNA dependent RNA polymerase Nonstructural protein 5B (HCV NS5B polymerase) in Hepatitis C virus
[2] = biological target: RNA-directed RNA polymerase (Hepacivirus hominis) (UniProt O39930); assay: Effective dose for RNA dependent RNA polymerase Nonstructural protein 5B (HCV NS5B polymerase) in Hepatitis C virus
[3] = biological target: RNA-directed RNA polymerase (Hepacivirus hominis) (UniProt O39930); assay: Cytotoxic concentration against RNA dependent RNA polymerase Nonstructural protein 5B (HCV NS5B polymerase) in Hepatitis C virus
[4] = biological target: RNA-directed RNA polymerase (Hepacivirus hominis) (UniProt O39930); assay: Ratio for cellular to RNA dependent RNA polymerase Nonstructural protein 5B activity in Hepatitis C virus

Sequence of RNA-directed RNA polymerase (O39930 whole entry): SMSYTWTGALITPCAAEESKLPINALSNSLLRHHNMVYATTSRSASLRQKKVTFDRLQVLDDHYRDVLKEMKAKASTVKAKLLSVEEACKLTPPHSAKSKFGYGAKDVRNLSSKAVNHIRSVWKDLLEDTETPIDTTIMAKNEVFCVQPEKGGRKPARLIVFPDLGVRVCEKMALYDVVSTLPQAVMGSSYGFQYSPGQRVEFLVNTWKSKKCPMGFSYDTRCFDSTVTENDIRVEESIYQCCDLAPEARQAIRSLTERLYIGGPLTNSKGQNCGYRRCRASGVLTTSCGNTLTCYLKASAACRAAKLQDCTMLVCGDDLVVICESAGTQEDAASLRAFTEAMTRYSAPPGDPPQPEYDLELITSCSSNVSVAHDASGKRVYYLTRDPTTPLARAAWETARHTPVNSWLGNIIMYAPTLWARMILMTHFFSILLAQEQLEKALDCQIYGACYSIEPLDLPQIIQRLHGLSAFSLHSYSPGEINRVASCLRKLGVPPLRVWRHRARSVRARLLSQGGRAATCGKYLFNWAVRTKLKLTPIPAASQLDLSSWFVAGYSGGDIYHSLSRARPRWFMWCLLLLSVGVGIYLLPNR
Sequence of RNA-directed RNA polymerase (Hepacivirus hominis) (O39930 1-591): as the sequence (O39930 whole entry) above

Structure (SMILES): O=C(CC1CCCCC1)N/C(=C\c1ccc(Oc2ccccc2Br)cc1)C(=O)O
- IC50 [1]: 2.2 µM
- ED50 [2]: > 100 µM

Structure (SMILES): O=C(O)CNC(=O)/C(=C/c1ccc(Oc2ccccc2Br)cc1)NC(=O)c1ccccc1
- IC50 [1]: 0.06 µM
- ED50 [2]: > 50 µM
- CC50 [3]: > 50 µM

Structure (SMILES): O=C(CCC1CCCC1)N/C(=C\c1ccc(Oc2ccccc2C(F)(F)F)cc1)C(=O)O
- IC50 [1]: 6.3 µM
- Ratio [4]: 0.7
- ED50 [2]: 5 µM
- CC50 [3]: > 100 µM

Structure (SMILES): O=C(O)/C(=C/c1ccc(Oc2ccccc2Br)cc1)NC(=O)c1cccc(F)c1
- IC50 [1]: 0.09 µM
- ED50 [2]: 53 µM
- CC50 [3]: > 100 µM

Structure (SMILES): O=C(O)/C(=C/c1ccc(Oc2ccccc2Br)cc1)NC(=O)c1ccc(F)c(F)c1
- IC50 [1]: 0.23 µM
- ED50 [2]: > 100 µM
- CC50 [3]: > 100 µM

Structure (SMILES): O=C(O)/C(=C/c1ccc(Oc2ccccc2Br)cc1)NC(=O)c1ccc(Cl)cc1
- IC50 [1]: 0.11 µM
- ED50 [2]: > 100 µM
- CC50 [3]: > 100 µM

Structure (SMILES): O=C(O)/C(=C/c1ccc(Oc2ccccc2Br)cc1)NC(=O)c1ccccc1O
- IC50 [1]: 0.08 µM
- ED50 [2]: > 100 µM
- CC50 [3]: > 100 µM

Structure (SMILES): O=C(O)/C(=C/c1ccc(Oc2ccccc2I)cc1)NC(=O)C1CC1
- IC50 [1]: 2.8 µM
- ED50 [2]: > 100 µM

Structure (SMILES): O=C(O)/C(=C/c1ccc(Oc2c(F)cccc2Br)cc1)NC(=O)c1ccccc1
- ED50 [2]: 60 µM

Structure (SMILES): O=C(O)/C(=C/c1ccc(Oc2ccccc2Br)cc1)NC(=O)c1ccc(F)cc1F
- IC50 [1]: 0.23 µM
- ED50 [2]: > 100 µM
- CC50 [3]: > 100 µM

Structure (SMILES): O=C(CCc1ccc(C(F)(F)F)cc1)N/C(=C\c1ccc(Oc2ccccc2Br)cc1)C(=O)O
- IC50 [1]: 0.37 µM
- ED50 [2]: > 100 µM
- CC50 [3]: > 100 µM

Structure (SMILES): CC(O)C(=O)N/C(=C\c1ccc(Oc2ccccc2I)cc1)C(=O)O (stereo not drawn)
- IC50 [1]: 4.8 µM
- ED50 [2]: > 100 µM

Structure (SMILES): O=C(CC1CCCC1)N/C(=C\c1ccc(Oc2ccccc2Br)cc1)C(=O)O
- IC50 [1]: 0.85 µM
- ED50 [2]: > 100 µM

Structure (SMILES): O=C(Cc1ccc(Br)cc1)N/C(=C\c1ccc(Oc2ccccc2Br)cc1)C(=O)O
- IC50 [1]: 0.82 µM
- ED50 [2]: > 100 µM
- CC50 [3]: > 100 µM

Structure (SMILES): O=C(O)/C(=C/c1ccc(Oc2ccccc2I)cc1)NC(=O)C(O)c1ccccc1 (stereo not drawn)
- IC50 [1]: 3.1 µM
- ED50 [2]: > 100 µM

Structure (SMILES): O=C(O)/C(=C/c1ccc(Oc2ccccc2Br)cc1)NC(=O)C12CC3CC(CC(C3)C1)C2
- ED50 [2]: > 100 µM

Structure (SMILES): CONC(=O)/C(=C/c1ccc(Oc2ccccc2Br)cc1)NC(=O)c1ccccc1
- IC50 [1]: 0.8 µM
- ED50 [2]: > 50 µM
- CC50 [3]: 22 µM

Structure (SMILES): O=C(O)/C(=C/c1ccc(Oc2ccccc2Br)cc1)NC(=O)C1CC2CCC1C2 (stereo not drawn)
- IC50 [1]: 0.1 µM
- ED50 [2]: > 100 µM

Structure (SMILES): O=C(Cc1ccc(C(F)(F)F)cc1)N/C(=C\c1ccc(Oc2ccccc2Br)cc1)C(=O)O
- IC50 [1]: 1 µM
- ED50 [2]: > 100 µM
- CC50 [3]: 18 µM

Structure (SMILES): O=C(CCC1CCCCC1)N/C(=C\c1ccc(Oc2ccccc2Br)cc1)C(=O)O
- IC50 [1]: 13 µM
- ED50 [2]: > 100 µM

Structure (SMILES): O=C(CCC1CCCC1)N/C(=C\c1ccc(Oc2ccccc2I)cc1)C(=O)O
- IC50 [1]: 7 µM
- Ratio [4]: 2
- ED50 [2]: 15 µM

Structure (SMILES): Cc1ccc(C(=O)N/C(=C\c2ccc(Oc3ccccc3Br)cc2)C(=O)O)cc1
- IC50 [1]: 0.25 µM
- ED50 [2]: > 100 µM
- CC50 [3]: > 100 µM

Structure (SMILES): CCc1ccccc1Oc1ccc(/C=C(\NC(=O)CCC2CCCC2)C(=O)O)cc1
- IC50 [1]: 7.1 µM
- Ratio [4]: 2
- ED50 [2]: 15 µM
- CC50 [3]: > 100 µM

Structure (SMILES): O=C(CCc1ccc(Cl)cc1)N/C(=C\c1ccc(Oc2ccccc2Br)cc1)C(=O)O
- IC50 [1]: 0.5 µM
- ED50 [2]: > 100 µM
- CC50 [3]: > 100 µM

— ChEMBL document CHEMBL1145278, “Inhibitors of HCV NS5B polymerase. Part 2: Evaluation of the northern region of (2Z)-2-benzoylamino-3-(4-phenoxy-phenyl)-acrylic acid” (Bioorg Med Chem Lett, 2005)
